System: uterine weight, immature rats
Experiment: In vivo uterotropic activity
Set-up: species or system rat
Details: 0.2 and 2 mg/kg, three days, S.C.
Procedure: Immature rats were treated with doses of 0.2 and 2 mg/kg 5,7,9-estratriene-3β,17β-diol for three days (S.C.) as well as additional groups (n=6) of rats treated with 0.5 μg ethinyl estradiol and vehicle as positive and negative controls, respectively.

In the case of `C[C@]12CCc3c(ccc4c3CC[C@H](O)C4)[C@@H]1CC[C@@H]2O` [5,7,9-estratriene-3β,17β-diol], the uterine weight is reported as “uterine weight gains at both concentrations”.
